The text below walks through data of patent US20120283297A1, “OXADIAZOLE SUBSTITUTED INDAZOLE DERIVATIVES FOR USE AS SPHINGOSINE 1-PHOSPHATE 1 (S1P1) RECEPTOR AGONISTS” (GLAXO WELLCOME HOUSE, priority 2009, published 2012).

The assay deals with T1, S1P1 receptor (Homo sapiens, UniProt P21453).
T1 construct: TEV protease site; Gal4-VP16 transcription factor; expressed in transfected cells; host or cells: Tango GPCR-bla U2OS parental cell line (EDG1-bla/U2OS)
Kind of assay: S1P1 Tango Assay. The assay is classed as cell-based. Conditions: agonist activity, recombinant EDG1-bla/U2OS cells, beta-lactamase FRET readout. The source says:
The potencies and efficacies of the compounds of this invention for the S1P1 receptor can be determined by S1P1 Tango assay performed on the human cloned receptor as described herein.
Recombinant EDG1-bla/U2OS cells (contain the human Endothelial Differentiation Gene 1 (EDG1) linked to a TEV protease site and a Gal4-VP16 transcription factor stably integrated into the Tango GPCR-bla U2OS parental cell line) were harvested from growth medium and passaged into assay medium (Invitrogen Freestyle Expression Medium). The cells were starved for 24 hours at 37° C., 5% CO2, harvested and resuspended in assay medium at a density of ˜200,000 cells/ml. All test compounds were dissolved in DMSO at a concentration of 10 mM and were prepared in 100% DMSO to provide 10 point dose response curves. Test compounds prepared by Bravo (Velocity11) were added to wells in columns 2-11 and 13-22; DMSO was added to wells in columns 12 and 23 as unstimulated controls and assay medium was added to wells in columns 1 and 24 as cell-free controls. An S1P1 agonist was added to wells in row 2, columns 2-11 as stimulated controls and test compounds were added to wells in row 2, columns 13-22 and rows 3-15, columns 2-11/13-22 (row 1 and 16 were empty and not used). Compounds in solution were added to the assay plate (Greiner 781090) using an Echo (Labcyte) dose-response program (50 nl/well). The unstimulated and cell-free controls were loaded with 50 nl/well pure DMSO to ensure that the DMSO concentration was constant across the plate for all assays.
50 μl of the cell suspension was added to each well in columns 2-23 of the plate (˜10,000 cells per well). 50 μl of assay medium was added to each well in the cell-free controls (columns 1 and 24). The cells were incubated overnight at 37° C./5% CO2. 10 μl of 6× substrate mixture (LiveBLAzer™-FRET BIG substrate (CCF4-AM) Cat # K1096 from Invitrogen, Inc.) was added to each well using Bravo and the plates incubated at room temperature for 2 h in the dark. The plate was finally read on EnVision for two emission channels (460 nm and 530 nm).
The blue/green emission ratio (460 nm/530 nm) was calculated for each well, by dividing the background-subtracted Blue emission values by the background-subtracted Green emission values. The dose response curve is based on sigmoidal dose-response model. All ratio data was normalized based upon the maximum emission ratio of positive control and minimum emission ratio of negative control (DMSO) on each plate. The intrinsic activity (IA) of each compound would be the normalized percentage of its maximum response after curve fitting.

Some results are limits rather than exact numbers.

T1 sequence (P21453 whole entry, the tested form may be a part): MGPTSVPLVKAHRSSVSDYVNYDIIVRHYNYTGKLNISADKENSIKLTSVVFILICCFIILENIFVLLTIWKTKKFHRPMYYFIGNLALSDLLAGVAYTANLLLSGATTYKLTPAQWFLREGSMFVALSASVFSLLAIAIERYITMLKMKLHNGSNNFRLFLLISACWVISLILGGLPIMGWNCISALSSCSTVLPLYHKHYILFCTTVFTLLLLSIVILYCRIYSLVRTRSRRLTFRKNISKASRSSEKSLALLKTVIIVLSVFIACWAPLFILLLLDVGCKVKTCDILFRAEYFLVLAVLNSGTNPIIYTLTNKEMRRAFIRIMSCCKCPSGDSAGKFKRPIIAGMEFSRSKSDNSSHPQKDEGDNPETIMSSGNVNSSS

As to `CC(C)Oc1ccc(-c2nc(-c3cccc4[nH]ncc34)no2)cc1C#N` [Example 3, 5-[3-(1H-Indazol-4-yl)-1,2,4-oxadiazol-5-yl]-2-[(1-methylethyl)oxy]benzonitrile], the half-maximal effective concentration (EC50) is no more than 1 nM.
As to `CC(C)Oc1ccc(-c2nc(-c3ccc4[nH]ncc4c3)no2)cc1C#N` [Example 2, 5-[3-(1H-Indazol-5-yl)-1,2,4-oxadiazol-5-yl]-2-[(1-methylethyl)oxy]benzonitrile], the EC50 was 1 to 10 nM.
As to `CC(C)Oc1ncc(-c2nc(-c3ccc4c(cnn4CCC(=O)O)c3)no2)cc1Cl` [Example 10, 3-[5-(5-{5-Chloro-6-[(1-methylethyl)oxy]-3-pyridinyl}-1,2,4-oxadiazol-3-yl)-1H-indazol-1-yl]propanoic acid], the EC50 is 10 to 100 nM.
For `CC(C)Oc1ncc(-c2nc(-c3ccc4[nH]ncc4c3)no2)cc1Cl` [Example 11, 5-(5-{5-Chloro-6-[(1-methylethyl)oxy]-3-pyridinyl}-1,2,4-oxadiazol-3-yl)-1H-indazole], the 50% effective concentration (EC50) is 10 to 100 nM.
Next, `Cc1c(-c2noc(-c3cnc(OC(C)C)c(Cl)c3)n2)ccc2c1cnn2CCCC(=O)O` [Example 13, 4-[5-(5-{5-Chloro-6-[(1-methylethyl)oxy]-3-pyridinyl}-1,2,4-oxadiazol-3-yl)-4-methyl-1H-indazol-1-yl]butanoic acid]: 1 to 10 nM.
Consider `CC(C)Oc1ncc(-c2nc(-c3cc4cnn(CCCC(=O)O)c4cc3F)no2)cc1Cl` [Example 17, 4-[5-(5-{5-Chloro-6-[(1-methylethyl)oxy]-3-pyridinyl}-1,2,4-oxadiazol-3-yl)-6-fluoro-1H-indazol-1-yl]butanoic acid], for which the EC50 is 10 to 100 nM.
Take `CC(C)Oc1ncc(-c2nc(-c3cc4cn[nH]c4cc3Cl)no2)cc1Cl` [Example 19, 6-Chloro-5-(5-{5-chloro-6-[(1-methylethyl)oxy]-3-pyridinyl}-1,2,4-oxadiazol-3-yl)-1H-indazole]: the EC50 is 1 to 10 nM.
Consider `CC(C)Oc1ccc(-c2nc(-c3cccc4[nH]ncc34)no2)cc1Cl` [Example 4, 4-(5-{3-Chloro-4-[(1-methylethyl)oxy]phenyl}-1,2,4-oxadiazol-3-yl)-1H-indazole], for which the EC50 was 10 to 100 nM.
Next, `CC(C)Oc1ccc(-c2nc(-c3cccc4c3cnn4C3(CC(=O)O)COC3)no2)cc1Cl` [Example 8, {3-[4-(5-{3-Chloro-4-[(1-methylethyl)oxy]phenyl}-1,2,4-oxadiazol-3-yl)-1H-indazol-1-yl]-3-oxetanyl}acetic acid]: 10 to 100 nM; `CC(C)Oc1ccc(-c2nc(-c3ccc4[nH]ncc4c3)no2)cc1Cl` [Example 1, 5-(5-{3-Chloro-4-[(1-methylethyl)oxy]phenyl}-1,2,4-oxadiazol-3-yl)-1H-indazole]: no more than 1 nM; `CC(C)Oc1ccc(-c2nc(-c3cccc4c3cnn4CC(C)C(=O)O)no2)cc1Cl` (centres unmarked) [Example 5, 3-[4-(5-{3-Chloro-4-[(1-methylethyl)oxy]phenyl}-1,2,4-oxadiazol-3-yl)-1H-indazol-1-yl]-2-methylpropanoic acid]: 10 to 100 nM.
As for `CC(C)Oc1ccc(-c2nc(-c3cccc4c3cnn4CC(O)C(=O)O)no2)cc1Cl` (single isomer, unassigned) [Example 9, Lithium 3-[4-(5-{3-chloro-4-[(1-methylethyl)oxy]phenyl}-1,2,4-oxadiazol-3-yl)-1H-indazol-1-yl]-2-hydroxypropanoate], the figure is 1 to 10 nM.
Consider `CC(C)Oc1ccc(-c2nc(-c3cccc4c3cnn4CCCCC(=O)O)no2)cc1Cl` [Example 6, 5-[4-(5-{3-Chloro-4-[(1-methylethyl)oxy]phenyl}-1,2,4-oxadiazol-3-yl)-1H-indazol-1-yl]pentanoic acid], for which the EC50 is 10 to 100 nM.
In the case of `CC(C)Oc1ncc(-c2nc(-c3ccc4c(cnn4CCCC(=O)O)c3)no2)cc1C#N` [Example 14, 4-[5-(5-{5-Cyano-6-[(1-methylethyl)oxy]-3-pyridinyl}-1,2,4-oxadiazol-3-yl)-1H-indazol-1-yl]butanoic acid], the EC50 is no more than 1 nM.

A word on the EC50: it is the concentration that produces a half-maximal response.
